Test results as given in patent publication US10285938B2 (ISSAR Pharmaceutical, priority 2015, dated 2019).
Like-named read-outs stand apart in the source and are kept apart here. No end group written: not given here.

Experiments:
[1] = tested on: Staphylococcus aureus MTCC 96; type: cell-based
burn wound healing = tested on: burn wound healing; set-up: species or system human; conditions: in vivo
From the text: None of the XYLENTRA® treated volunteers developed any adverse reaction.

[2] = tested on: Pseudomonas aeroginosa MTCC 741; type: cell-based
From the text: Whereas, 100% killing of Pseudomonas aeroginosa was observed on exposure to the test compound for 1 hr at pH 8.4 and an exposure of 4 hrs was required for 100% killing at pH 7.2.

[3] = human, in vivo
From the text: There was an absence of any symptoms or signs of toxicity at the evaluation site and considered a measure of primary efficacy/tolerability was established in this study. […] Treatment Groups (2% and 4%) were similar in efficacy/tolerability and safety parameters studied.

[4] = subacute toxicity study in rabbits; type: in vivo
[5] = subacute toxicity study in rats; type: in vivo

From the text for partial thickness burns: Patients of either gender with partial thickness burns referred to a tertiary referral center Number of Subjects Enrolled: 160
Multi-center, double-blind, randomized parallel design study in 200 patients of partial thickness burns • 2. […] Participants satisfying the inclusion criteria were hospitalized for the study duration and were randomized in a 1:1 ratio to receive either SSD 1% or XYLENTRA®. Randomization was done specific for each center. Allocation concealment was maintained. The drugs were topically administered once daily for 4 weeks or until complete wound healing, whichever was earlier. The patients were discharged only after complete healing of wound and recovery from other secondary effects of burns. A follow up was done on the 3rd month to record the frequency of scars^10, keloids or contracture formation. • b. […] Either sex • 2. Age 18-60 years • 3. Those diagnosed with partial thickness thermal burns as per clinically • 4. Total surface area of the burn 10-20% as per Wallace rule of nine • 5. Willing to give written informed consent. • 6. Females of child-bearing potential with a negative urine pregnancy test on Day 1 • 7. […]
Safety was measured by pretreatment and post treatment biochemical investigations (Hematological variables) and physical examination. Subjects were thoroughly monitored for adverse effects.

Sequence: FAKKFAKKFAKFAKKFAKFAFAF [XYLENTRA®]
- killing of Staphylococcus aureus ([1]; MTCC 96, 1 h, 1 μM, pH 7.2): 100%
- killing of Staphylococcus aureus ([1]; MTCC 96, 1 h, 5 μM, pH 7.2): 100%
- killing of Staphylococcus aureus ([1]; MTCC 96, 4 h, pH 8.4): 100%
- systemic absorption (pharmacokinetic data) (burn wound healing): absence of systemic absorption
- volunteers who developed any adverse reaction (burn wound healing): None
- killing of Pseudomonas aeroginosa ([2]; MTCC 741, 1 h, pH 8.4): 100%
- killing of Pseudomonas aeroginosa ([2]; MTCC 741, 4 h, pH 7.2): 100%
- mild redness and itching [3]: 2/24
- safety of cream [3]: safe
- systemic absorption (pharmacokinetic data by HPLC) [3]: no systemic absorption
- serious adverse events and deaths (partial thickness burns; Phase III): No serious adverse events and no deaths
- nature of treatment emergent adverse events (partial thickness burns; mostly skin related disorders): mild
- mortality [4]: No mortality
- abnormalities in physical, physiological, biochemical and histo-pathological parameters ([4]; application of the peptide): No abnormalities
- mortality [5]: No mortality
- abnormalities in physical, physiological, biochemical and histo-pathological parameters ([5]; application of the peptide): No abnormalities
